Test results as given in ChEMBL document CHEMBL6177997, “Design, Synthesis, and Evaluation of Novel ROCK Inhibitors for Glaucoma Treatment: Insights into In Vitro and In Vivo Efficacy and Safety” (J Med Chem, 2025).
Activity calls are given as the source filed them. No cut-off for these calls is given here.

How the values were obtained:
[1] = target: T1, Rho-associated protein kinase 2 (Homo sapiens, UniProt O75116); assay: Inhibition of ROCK2 (unknown origin) relative to control; conditions: concentration not given here
Target sequence in this assay (O75116 whole entry, looked up): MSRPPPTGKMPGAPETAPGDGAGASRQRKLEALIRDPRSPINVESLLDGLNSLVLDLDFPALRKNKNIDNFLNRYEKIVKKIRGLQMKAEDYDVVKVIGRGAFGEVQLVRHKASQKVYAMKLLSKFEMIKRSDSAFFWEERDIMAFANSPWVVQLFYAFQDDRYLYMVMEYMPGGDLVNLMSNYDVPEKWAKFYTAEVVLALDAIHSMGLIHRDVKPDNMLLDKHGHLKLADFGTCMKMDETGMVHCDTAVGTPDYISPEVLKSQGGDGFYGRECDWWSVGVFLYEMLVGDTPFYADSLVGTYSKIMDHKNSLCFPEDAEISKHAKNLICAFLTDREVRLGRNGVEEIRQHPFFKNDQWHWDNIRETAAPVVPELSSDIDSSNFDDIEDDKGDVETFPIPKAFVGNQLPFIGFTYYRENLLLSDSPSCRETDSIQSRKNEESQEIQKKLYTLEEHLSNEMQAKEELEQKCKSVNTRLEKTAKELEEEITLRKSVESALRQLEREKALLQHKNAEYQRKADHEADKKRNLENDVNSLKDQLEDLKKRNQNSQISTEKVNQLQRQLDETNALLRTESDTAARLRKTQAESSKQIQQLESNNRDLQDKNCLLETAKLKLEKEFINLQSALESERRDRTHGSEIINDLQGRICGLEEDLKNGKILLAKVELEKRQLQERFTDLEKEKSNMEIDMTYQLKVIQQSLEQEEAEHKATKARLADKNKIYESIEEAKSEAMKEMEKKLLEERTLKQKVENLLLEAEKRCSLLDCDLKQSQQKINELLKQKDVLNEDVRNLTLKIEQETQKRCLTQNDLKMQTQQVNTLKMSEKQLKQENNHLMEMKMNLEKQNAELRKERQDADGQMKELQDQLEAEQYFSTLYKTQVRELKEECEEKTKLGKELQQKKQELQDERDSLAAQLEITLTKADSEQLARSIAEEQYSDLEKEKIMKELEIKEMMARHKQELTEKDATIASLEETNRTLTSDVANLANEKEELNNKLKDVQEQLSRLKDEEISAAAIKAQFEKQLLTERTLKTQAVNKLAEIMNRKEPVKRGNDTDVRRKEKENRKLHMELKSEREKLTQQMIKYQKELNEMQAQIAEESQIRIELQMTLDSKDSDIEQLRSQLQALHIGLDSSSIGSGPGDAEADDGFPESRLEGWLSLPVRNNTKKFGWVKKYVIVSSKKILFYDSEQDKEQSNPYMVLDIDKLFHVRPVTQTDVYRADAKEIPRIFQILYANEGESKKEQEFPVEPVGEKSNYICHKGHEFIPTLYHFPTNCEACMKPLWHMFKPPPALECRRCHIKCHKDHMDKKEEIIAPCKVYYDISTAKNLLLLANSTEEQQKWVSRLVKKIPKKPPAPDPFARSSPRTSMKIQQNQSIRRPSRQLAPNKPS

[2] = target: T2, Rho-associated protein kinase 1 (Homo sapiens, UniProt Q13464); assay: Inhibition of ROCK1 (unknown origin) incubated for 40 mins in presence of ATP by ADP-glo assay
Target sequence in this assay (Q13464 whole entry): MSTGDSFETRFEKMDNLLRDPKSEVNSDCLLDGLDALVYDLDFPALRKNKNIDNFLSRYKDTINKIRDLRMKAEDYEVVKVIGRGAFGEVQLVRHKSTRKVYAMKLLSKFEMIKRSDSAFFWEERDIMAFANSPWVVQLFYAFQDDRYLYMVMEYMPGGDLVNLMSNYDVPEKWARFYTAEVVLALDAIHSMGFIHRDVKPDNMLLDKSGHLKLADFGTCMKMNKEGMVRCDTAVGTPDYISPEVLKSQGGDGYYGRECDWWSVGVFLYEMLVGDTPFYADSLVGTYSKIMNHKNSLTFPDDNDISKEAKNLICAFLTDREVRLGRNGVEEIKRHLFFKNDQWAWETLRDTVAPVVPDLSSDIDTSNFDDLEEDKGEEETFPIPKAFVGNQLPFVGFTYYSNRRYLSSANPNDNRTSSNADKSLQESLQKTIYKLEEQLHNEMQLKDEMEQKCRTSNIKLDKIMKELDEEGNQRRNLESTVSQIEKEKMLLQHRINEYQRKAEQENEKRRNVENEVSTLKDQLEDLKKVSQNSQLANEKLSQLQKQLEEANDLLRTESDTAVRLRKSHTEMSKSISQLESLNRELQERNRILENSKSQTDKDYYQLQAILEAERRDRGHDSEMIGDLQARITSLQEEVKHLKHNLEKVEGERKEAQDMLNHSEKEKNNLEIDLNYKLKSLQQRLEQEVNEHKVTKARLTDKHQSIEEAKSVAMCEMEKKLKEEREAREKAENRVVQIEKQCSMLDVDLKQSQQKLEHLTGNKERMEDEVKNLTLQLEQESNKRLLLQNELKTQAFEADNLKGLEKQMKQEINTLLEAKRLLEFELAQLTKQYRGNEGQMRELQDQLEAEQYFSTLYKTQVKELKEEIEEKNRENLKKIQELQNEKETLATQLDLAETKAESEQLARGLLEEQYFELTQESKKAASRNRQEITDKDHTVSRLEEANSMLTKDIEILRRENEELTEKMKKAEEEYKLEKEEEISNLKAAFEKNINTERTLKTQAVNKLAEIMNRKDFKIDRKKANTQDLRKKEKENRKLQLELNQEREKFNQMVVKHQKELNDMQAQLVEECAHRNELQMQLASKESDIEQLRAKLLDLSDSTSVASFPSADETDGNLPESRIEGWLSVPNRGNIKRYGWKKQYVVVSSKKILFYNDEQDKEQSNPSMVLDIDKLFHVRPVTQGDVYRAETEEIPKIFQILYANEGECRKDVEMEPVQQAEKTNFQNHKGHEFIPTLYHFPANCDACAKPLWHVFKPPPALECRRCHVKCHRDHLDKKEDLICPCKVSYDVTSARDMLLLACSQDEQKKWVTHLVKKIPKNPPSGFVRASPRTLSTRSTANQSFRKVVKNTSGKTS

[3] = target: T1, Rho-associated protein kinase 2; assay: Inhibition of ROCK2 (unknown origin) incubated for 40 mins in presence of ATP by ADP-glo assay
Target sequence in this assay (O75116 whole entry): as the sequence (O75116 whole entry, looked up) above

[4] = target: T3, MAP kinase-interacting serine/threonine-protein kinase 1 (Homo sapiens, UniProt Q9BUB5); assay: Inhibition of MNK1 (unknown origin) preincubated for 10 mins followed by substrate addition and measured after 60 mins by ADP-glo kinase assay
Target sequence in this assay (Q9BUB5 whole entry): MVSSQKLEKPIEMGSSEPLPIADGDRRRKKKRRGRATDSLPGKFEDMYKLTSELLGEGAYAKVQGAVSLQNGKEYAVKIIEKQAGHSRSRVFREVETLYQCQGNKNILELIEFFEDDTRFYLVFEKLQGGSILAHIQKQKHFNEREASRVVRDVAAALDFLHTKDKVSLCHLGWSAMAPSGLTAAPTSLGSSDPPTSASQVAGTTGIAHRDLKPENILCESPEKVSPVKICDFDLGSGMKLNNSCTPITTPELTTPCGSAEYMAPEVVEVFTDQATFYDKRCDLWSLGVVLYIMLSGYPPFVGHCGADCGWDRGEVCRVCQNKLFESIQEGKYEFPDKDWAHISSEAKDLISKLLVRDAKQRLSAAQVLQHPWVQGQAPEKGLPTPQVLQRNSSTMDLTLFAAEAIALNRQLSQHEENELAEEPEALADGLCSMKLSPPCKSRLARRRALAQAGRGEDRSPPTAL

HTM [5] = assay: Induction of morphological changes in human HTM cells at 3 uM incubated for 10 hrs by light microscopic analysis; assay type: functional, cell-based
HTM [6] = assay: Induction of morphological changes in human HTM cells assessed as appearance of cell contraction at 45 uM incubated for 10 hrs by light microscopic analysis; assay type: functional, cell-based
HTM [7] = assay: Induction of morphological changes in human HTM cells assessed as appearance of cell contraction at 15 uM incubated for 10 hrs by light microscopic analysis; assay type: functional, cell-based
[8] = Cytotoxicity against human HTM cells assessed as inhibition of cell proliferation at 45 uM incubated for 24 hrs by MTT assay; assay type: toxicity, cell-based
HTM [9] = assay: Inhibition of paxillin expression in human HTM cells at 0.02 to 5 uM; assay type: functional, cell-based; conditions: dose 0.02-5 µM
HTM [10] = assay: Inhibition of cell migration in human HTM cells at 1 uM incubated for 24 to 48 hrs by wound healing assay; assay type: functional, cell-based; conditions: time 24-48 hrs
HTM [11] = assay: Inhibition of TGF-beta2 induced alpha-SMA expression in human HTM cells at 1 uM pretreated with compound for 2 hrs followed by TGF-beta2 induction and measured after 24 hrs; assay type: functional, cell-based; conditions: time 26.0 hrs
HTM [12] = assay: Inhibition of TGF-beta2 induced collagen 1A expression in human HTM cells at 1 uM pretreated with compound for 2 hrs followed by TGF-beta2 induction and measured after 24 hrs; assay type: functional, cell-based; conditions: time 26.0 hrs
HTM [13] = assay: Inhibition of H2O2-induced ROS production in human HTM cells assessed as decrease in green fluorescence at 1 uM preincubated for 1 hrs followed by H2O2 induction for 2 hrs and measured after 30 mins by DCFH-DA based fluorescence microscopic analysis; assay type: functional, cell-based; conditions: time 3.5 hrs
HTM [14] = assay: Anti-inflammatory activity against human HTM cells assessed as inhibition of H2O2-induced IL-6 secretion; assay type: functional, cell-based
HTM [15] = assay: Anti-inflammatory activity against human HTM cells assessed as inhibition of H2O2-induced NF-kappaB secretion; assay type: functional, cell-based
HTM [16] = assay: Anti-inflammatory activity against human HTM cells assessed as inhibition of H2O2-induced i-NOS secretion; assay type: functional, cell-based
Mitochondrial membrane = assay: Induction of mitochondrial membrane potential in human HTM cells at 1 uM incubated for 24 hrs by JC-1 staining based flow cytometry analysis
[17] = Induction of apoptosis in H2O2-induced human HTM cells at 1 uM pretreated with compound for 1 hr followed by H2O2 induction and measured after 2 hrs by Annexin V AF647/PI staining based flow cytometry analysis (reference value: 13.47%); assay type: functional; conditions: time 3 hrs
Oryctolagus cuniculus [18] = species on record: Oryctolagus cuniculus; assay: Anti-glaucoma activity in methylcellulose-induced acute intraocular hypertensive rabbit model assessed as reduction in intraocular pressure at 0.1 %, TOP measured at 4 hrs; assay type: functional
Oryctolagus cuniculus [19] = species on record: Oryctolagus cuniculus; assay: Anti-glaucoma activity in methylcellulose-induced acute intraocular hypertensive rabbit model assessed as reduction in intraocular pressure at 0.1 %, TOP measured at 8 hrs; assay type: functional
Oryctolagus cuniculus [20] = species on record: Oryctolagus cuniculus; assay: Anti-glaucoma activity in methylcellulose-induced acute intraocular hypertensive rabbit model assessed as reduction in intraocular pressure at 0.1 %, TOP measured at 2 hrs; assay type: functional
[21] = Toxicity in rabbit assessed as appearance of conjunctival congestion by measuring ocular irritation score at 0.1 % TOP administration on left eye measured at 7 days by draize eye irritation test; assay type: tissue-based, Oryctolagus cuniculus; conditions: in vivo, topical_or_ocular, 168 h, time 7 day
[22] = target: T3, MAP kinase-interacting serine/threonine-protein kinase 1; assay: Inhibition of MNK1 (unknown origin) at 5 uM preincubated for 10 mins followed by substrate addition and measured after 60 mins by ADP-glo kinase assay relative to control; conditions: time 70.0 min
Target sequence in this assay (Q9BUB5 whole entry, looked up): as the sequence (Q9BUB5 whole entry) above

[23] = target: MAP kinase-interacting serine/threonine-protein kinase 2 (Homo sapiens) (UniProt Q9HBH9); assay: Inhibition of MNK2 (unknown origin) at 5 uM preincubated for 10 mins followed by substrate addition and measured after 60 mins by ADP-glo kinase assay relative to control; conditions: time 70.0 min
[24] = target: T2, Rho-associated protein kinase 1; assay: Inhibition of human ROCK1 using magnesium acetate as substrate at 1 uM measured after 120 mins in presence of [gamma33P]ATP by scintillation counting method relative to control
[25] = target: T1, Rho-associated protein kinase 2; assay: Inhibition of human ROCK2 using magnesium acetate as substrate at 1 uM measured after 120 mins in presence of [gamma33P]ATP by scintillation counting method relative to control
Target sequence in this assay (O75116 whole entry, looked up): as the sequence (O75116 whole entry, looked up) above

Homo sapiens [26] = species on record: Homo sapiens; assay: Inhibition of human PKA using magnesium acetate as substrate at 1 uM measured after 120 mins in presence of [gamma33P]ATP by scintillation counting method relative to control
[27] = target: T3, MAP kinase-interacting serine/threonine-protein kinase 1; assay: Inhibition of human MNK1 using magnesium acetate as substrate at 1 uM measured after 120 mins in presence of [gamma33P]ATP by scintillation counting method relative to control
Target sequence in this assay (Q9BUB5 whole entry, looked up): as the sequence (Q9BUB5 whole entry) above

[28] = target: MAP kinase-interacting serine/threonine-protein kinase 2 (Homo sapiens) (UniProt Q9HBH9); assay: Inhibition of human MNK2 using magnesium acetate as substrate at 1 uM measured after 120 mins in presence of [gamma33P]ATP by scintillation counting method relative to control
Homo sapiens [29] = species on record: Homo sapiens; assay: Inhibition of human PKB using magnesium acetate as substrate at 1 uM measured after 120 mins in presence of [gamma33P]ATP by scintillation counting method relative to control
[30] = target: Protein kinase C (PKC) (Homo sapiens) (UniProt O94806+P41743+P17252+P05129+Q05655+P05771+Q05513+Q02156+P24723+Q15139+Q04759); assay: Inhibition of human PKC using magnesium acetate as substrate at 1 uM measured after 120 mins in presence of [gamma33P]ATP by scintillation counting method relative to control; assay type: protein assay
[31] = target: Serine/threonine-protein kinase SIK2 (Homo sapiens) (UniProt Q9H0K1); assay: Inhibition of human QIK using magnesium acetate as substrate at 1 uM measured after 120 mins in presence of [gamma33P]ATP by scintillation counting method relative to control
[32] = target: Mitogen-activated protein kinase kinase kinase kinase 4 (Homo sapiens) (UniProt O95819); assay: Inhibition of human HGK using magnesium acetate as substrate at 1 uM measured after 120 mins in presence of [gamma33P]ATP by scintillation counting method relative to control
HTM [33] = assay: Induction of F-actin depolymerization in human HTM cells at 1 to 5 uM incubated for 4 hrs by rhodamine-phalloidin staining based analysis; assay type: cell-based; conditions: dose 1-5 µM
HTM [34] = assay: Induction of morphological changes in human HTM cells at 0.1 uM incubated for 10 hrs in presence of eFT508 by light microscopic analysis; assay type: functional, cell-based
Oryctolagus cuniculus [35] = species on record: Oryctolagus cuniculus; assay: Anti-glaucoma activity in methylcellulose-induced high acute intraocular hypertensive rabbit model assessed as reduction in intraocular pressure at 0.1 %, TOP measured at 4 hrs; assay type: functional
HTM [36] = assay: Induction of morphological changes in human HTM cells assessed as appearance of rounded cells at 15 uM incubated for 10 hrs by light microscopic analysis; assay type: functional, cell-based
HTM [37] = assay: Induction of morphological changes in human HTM cells assessed as appearance of rounded cells at 45 uM incubated for 10 hrs by light microscopic analysis; assay type: functional, cell-based
[38] = Cytotoxicity against human HTM cells assessed as reduction in cell viability at 15 uM incubated for 24 hrs by MTT assay relative to control; assay type: toxicity, cell-based
[39] = Cytotoxicity against human HTM cells assessed as reduction in cell viability at 45 uM incubated for 24 hrs by MTT assay relative to control; assay type: toxicity, cell-based
HTM [40] = assay: Induction of F-actin depolymerization in human HTM cells at 5 uM incubated for 4 hrs by rhodamine-phalloidin staining based analysis; assay type: cell-based
HTM [41] = assay: Inhibition of paxillin expression in human HTM cells at 5 uM; assay type: functional, cell-based
[42] = Toxicity in rabbit assessed as appearance of conjunctival congestion by measuring ocular irritation score at 0.1 % TOP administration on left eye measured after 7 days by draize eye irritation test; assay type: tissue-based, Oryctolagus cuniculus; conditions: in vivo, topical_or_ocular, 168 h, time 7 day
[43] = Toxicity in rabbit assessed as appearance of conjunctival congestion by measuring ocular irritation score at 0.1 % TOP administration on left eye measured on day 4 by draize eye irritation test; assay type: tissue-based, Oryctolagus cuniculus; conditions: in vivo, topical_or_ocular, 96 h, time 4 day

Chain of MAP kinase-interacting serine/threonine-protein kinase 2 (Homo sapiens) (Q9HBH9 whole entry, looked up): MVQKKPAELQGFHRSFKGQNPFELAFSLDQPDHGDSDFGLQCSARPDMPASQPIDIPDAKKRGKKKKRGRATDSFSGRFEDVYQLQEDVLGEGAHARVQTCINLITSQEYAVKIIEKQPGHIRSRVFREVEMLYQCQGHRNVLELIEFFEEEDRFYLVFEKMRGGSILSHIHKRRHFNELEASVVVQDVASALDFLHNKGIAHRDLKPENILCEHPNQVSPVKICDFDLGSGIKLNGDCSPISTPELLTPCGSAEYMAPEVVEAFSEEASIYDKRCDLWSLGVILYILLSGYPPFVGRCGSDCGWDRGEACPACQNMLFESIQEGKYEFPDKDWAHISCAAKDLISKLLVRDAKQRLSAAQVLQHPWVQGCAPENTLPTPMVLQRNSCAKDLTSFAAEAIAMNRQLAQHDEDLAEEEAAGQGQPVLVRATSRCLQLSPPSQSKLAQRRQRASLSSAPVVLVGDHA
Chain of Mitogen-activated protein kinase kinase kinase kinase 4 (Homo sapiens) (O95819 2-1239 limits assumed): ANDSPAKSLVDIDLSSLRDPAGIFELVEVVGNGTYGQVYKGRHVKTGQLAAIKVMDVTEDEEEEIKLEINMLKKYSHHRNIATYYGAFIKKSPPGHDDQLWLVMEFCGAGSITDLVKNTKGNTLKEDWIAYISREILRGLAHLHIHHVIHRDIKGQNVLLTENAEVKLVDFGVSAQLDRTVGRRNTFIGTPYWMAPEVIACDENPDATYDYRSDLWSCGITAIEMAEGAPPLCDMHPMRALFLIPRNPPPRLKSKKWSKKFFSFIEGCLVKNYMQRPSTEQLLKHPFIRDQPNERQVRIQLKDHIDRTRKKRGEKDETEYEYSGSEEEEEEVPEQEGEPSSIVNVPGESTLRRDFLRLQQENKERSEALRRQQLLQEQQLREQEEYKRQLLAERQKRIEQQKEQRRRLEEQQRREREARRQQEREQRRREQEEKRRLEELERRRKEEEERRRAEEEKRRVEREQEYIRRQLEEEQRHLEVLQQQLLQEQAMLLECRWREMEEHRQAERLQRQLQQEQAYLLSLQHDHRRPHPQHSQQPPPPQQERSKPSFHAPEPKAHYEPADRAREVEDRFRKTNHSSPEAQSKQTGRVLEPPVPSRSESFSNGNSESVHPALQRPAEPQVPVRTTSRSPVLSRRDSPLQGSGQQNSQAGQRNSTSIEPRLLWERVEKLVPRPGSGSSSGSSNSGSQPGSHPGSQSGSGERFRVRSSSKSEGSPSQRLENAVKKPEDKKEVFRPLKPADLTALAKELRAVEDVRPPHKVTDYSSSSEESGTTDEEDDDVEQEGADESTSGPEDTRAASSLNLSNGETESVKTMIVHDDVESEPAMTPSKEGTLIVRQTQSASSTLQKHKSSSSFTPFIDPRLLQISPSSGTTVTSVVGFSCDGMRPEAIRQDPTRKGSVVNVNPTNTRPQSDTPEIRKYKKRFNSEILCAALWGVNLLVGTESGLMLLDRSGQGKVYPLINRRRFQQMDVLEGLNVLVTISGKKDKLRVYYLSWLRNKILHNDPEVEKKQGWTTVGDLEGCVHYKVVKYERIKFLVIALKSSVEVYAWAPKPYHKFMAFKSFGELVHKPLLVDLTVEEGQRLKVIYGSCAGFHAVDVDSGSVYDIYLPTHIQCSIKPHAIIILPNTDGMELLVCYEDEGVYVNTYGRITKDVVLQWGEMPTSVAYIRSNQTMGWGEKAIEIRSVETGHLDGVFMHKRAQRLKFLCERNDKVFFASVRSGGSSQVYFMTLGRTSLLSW

c1cc(-c2cc(C3CCNCC3)n[nH]2)c2cc[nH]c2n1
inhibition [1]: 98% | IC50 [2]: 47.2 nM | IC50 [3]: 33.8 nM | IC50 [4]: 47.2 nM | Activity (HTM [5]): Minimal_effect; Compound Induced Minimal Changes In Cell Morphology | Activity (HTM [6]): Active | Activity (HTM [7]): Active | Activity [8]: Non-toxic | inhibition (HTM [9]): Active | inhibition (HTM [10]): inactive | inhibition (HTM [11]): Active | inhibition (HTM [12]): Active | inhibition (HTM [13]): Active | Activity (HTM [14]): Active | inhibition (HTM [15]): Active | Activity (HTM [16]): Active | Activity (Mitochondrial membrane): inactive | Activity [17]: 36.77% | Activity (Oryctolagus cuniculus [18]): 5 mmHg | Activity (Oryctolagus cuniculus [19]): 2.56 mmHg | Activity (Oryctolagus cuniculus [20]): 9.38 mmHg | Activity [21]: Non-toxic

COc1cccc(CN2CCC(c3cc(-c4ccnc5[nH]ccc45)[nH]n3)CC2)c1
IC50 [2]: 123 nM | IC50 [3]: 96.7 nM | inhibition [22]: 61.6% | inhibition [23]: 64.7% | inhibition [24]: 85% | inhibition [25]: 89% | inhibition (Homo sapiens [26]): 70% | inhibition [27]: < 55% | inhibition [28]: < 50% | inhibition (Homo sapiens [29]): < 50% | inhibition [30]: < 55% | inhibition [31]: < 50% | inhibition [32]: < 55% | Activity (HTM [5]): Minimal_effect; Compound Induced Minimal Changes In Cell Morphology | Activity (HTM [6]): Active | Activity (HTM [7]): Active | Activity [8]: Non-toxic | Activity (HTM [33]): Active | inhibition (HTM [9]): Active | Activity (HTM [34]): Active | inhibition (HTM [10]): inactive | inhibition (HTM [11]): Active | inhibition (HTM [12]): Active | inhibition (HTM [13]): Active | Activity (HTM [14]): Active | inhibition (HTM [15]): Active | Activity (HTM [16]): Active | Activity (Mitochondrial membrane): Active | Activity [17]: 34.32% | Activity (Oryctolagus cuniculus [18]): 0.89 mmHg | Activity (Oryctolagus cuniculus [19]): 0.22 mmHg | Activity (Oryctolagus cuniculus [35]): 5.01 mmHg | Activity [21]: Non-toxic

Cc1ccc(C(=O)OCc2ccc([C@@H](CN)C(=O)Nc3ccc4cnccc4c3)cc2)c(C)c1
Activity (HTM [36]): Active | Activity (HTM [37]): Active | Activity [38]: 60% | Activity [39]: 80% | Activity (HTM [40]): Active | inhibition (HTM [41]): Active | inhibition (HTM [11]): Active | inhibition (HTM [12]): Active | inhibition (HTM [13]): Active | Activity (Mitochondrial membrane): inactive | Activity [17]: 43.02% | Activity (Oryctolagus cuniculus [18]): 3.55 mmHg | Activity (Oryctolagus cuniculus [19]): 4.7 mmHg | Activity (Oryctolagus cuniculus [35]): 9.5 mmHg | Activity (Oryctolagus cuniculus [20]): 8.16 mmHg | Activity [42]: Toxic | Activity [43]: Toxic
